# Measured values: patent publication US9119881B2, “Method of synergistically enhancing the therapeutic efficacy and safety of medication through a combination therapy” (priority 2010, dated 2015)
# Marks after values point to notes of the source that are not given here.
# What was measured:
# [1] = tested on: retinoid X receptor (RXR); assay: RXR luciferase reporter in transfected 3T3-L1 preadipocytes; assay type: cell-based; details: ABA 10 μM with 9-cis retinoic acid 10 μM
# Method: (§1) A pCMX.L-RXR or pCMX.RAR expression plasmid and a luciferase reporter plasmid were purified using Qiagen's Maxi kit (Valencia, Calif.). 3T3-L1 preadipocytes (American Type Culture Collection, Manassas, Va.) were grown in DMEM high glucose medium (Invitrogen, Carlsbad, Calif.) containing 10% fetal bovine serum (FBS). The cells cultured in 25 cm^2 flasks were co-transfected with 0.6 ug plasmid DNA and 1 ng of pRL reporter control plasmid per well using F-2 transfection reagents (Targeting Systems, Santee, Calif.) according to the manufacturer's protocol. After 24 hours, transfected cells were split trypsin and seeded into 96-well white plates at a concentration of 20,000 cells/wells. The transfected cells were then treated with 9-cis retinoic acid (0, 10 μM; Sigma), or retinoic acid (RA, 10 μM; Sigma), with ABA (10 μM; Sigma) Transfected cells were harvested in reporter lysis reagent. Luciferase activity, normalized to pRL activity in the cell extracts was determined by using the dual luciferase reporter assay system (Promega, Madison, Wis.) in a Modulus 96-well plate reader (Turner Biosystems, Sunnyvale, Calif.). Relative luciferase activity (RLA) was calculated as a ratio of the chemiluminescence 10 seconds after the Luciferase Assay Reagent II (Promega) was added over the chemiluminescence 10 seconds after the Stop&Glo Reagent (Promega).
# [2] = tested on: blood CCR2+CD11b+ monocytes and regulatory T cells (Tregs); assay: Blood immune cell populations of db/db mice, flow cytometry; assay type: in vivo; details: whole blood
# Method: (§2) Obese db/db mice were fed high-fat diets containing 0, 15, or 70 mg/kg diet rosiglitazone maleate (control, Ros^lo, and Ros^hi, respectively) with and without racemic ABA (100 mg/kg diet). On day 60 the percent of F4/80+CD11b+ in the stromal vascular fractions of abdominal white adipose tissue (Ab. WAT) (A) and subcutaneous WAT (B) were assessed by flow cytometry. The percent of CD11b+CCR2+ monocytes (C) and CD4+CD25+FoxP3+ Tregs (D) in blood were assessed in whole blood. The expressions of the M1 marker CCL17 (E) and peroxisome proliferator activated receptor γ (PPAR γ) (F) in Ab. WAT were calculated as a ratio to the housekeeping gene f3-actin. Data are represented as mean±standard error.
# (§3) Mice (n=40) were fed one of six experimental diets: a control high-fat diet (control), a high-fat diet containing low dose rosiglitazone maleate (Ros^lo, 10 mg/kg diet), or a high-fat diet containing a high dose of rosiglitazone maleate (Ros^hi, 70 mg/kg diet), each with or without all racemic ABA (100 mg/kg, Sigma Aldrich, St. Louis, Mo.) for 60 days. […] Blood glucose levels were assessed with an ACCU-CHEK® Glucometer (Roche, Indianapolis, Ind.). An intraperitoneal glucose tolerance test (IPGTT, 1 g glucose/kg body weight) was conducted on fasted mice (12 h) for 0, 30, 90, and 180 minute time points and insulin levels were measured on day 54. […]
# [3] = tested on: retinoic acid receptor (RAR); assay: RAR luciferase reporter in transfected 3T3-L1 preadipocytes; assay type: cell-based; details: ABA 10 μM with retinoic acid 10 μM
# Method: as §1
# F4/80+CD11b+ macrophages = assay: Macrophage infiltration into white adipose tissue of db/db mice, flow cytometry; assay type: in vivo; details: day 60
# Method: as §2, §3
# [4] = Dietary ABA and rosiglitazone in obese db/db mice: body and organ weights; assay type: in vivo; details: db/db mice, ABA 100 mg/kg diet, day 60
# Method: Twelve-fifteen week-old BKS.Cg-+Lepr^db/+Lepr^db/OlaHsd (db/db) mice were housed at the animal facilities at Virginia Polytechnic Institute and State University in a room maintained at 75° F., with a 12:12 h light-dark cycle starting from 6:00 AM. All experimental procedures were approved by the Institutional Animal Care and Use Committee of Virginia Polytechnic Institute and State University and met or exceeded requirements of the Public Health Service, National Institutes of Health and the Animal Welfare Act. […] Louis, Mo.) for 60 days. Mice were weighed and fasting (12 h) blood glucose levels were taken weekly. Blood glucose levels were assessed with an ACCU-CHEK® Glucometer (Roche, Indianapolis, Ind.). […] On day 60 mice were sacrificed by CO2 narcosis with secondary thoracotomy. Abdominal WAT, inguinal subcutaneous WAT, and liver were then excised and weighed. Abdominal and subcutaneous WAT were then digested and fractionated.
smiles,measurement,setting,value
"CC1=CC(=O)CC(C)(C)C1(O)/C=C/C(C)=C\C(=O)O (racemic) [ABA, abscisic acid]",activity of RXR ligands,[1],synergistically enhances
same,blood CCR2+CD11b+ monocyte levels,[2],mitigated
same,percentages of blood regulatory T cells (Tregs),[2]; independently of Ros,increased
same,activity of RAR ligands,[3],synergistically enhances
same,ATM infiltration in SCAT,F4/80+CD11b+ macrophages; db/db mice fed the control and Ros^lo diets,significantly reduced
same,macrophage (ATM) infiltration into Ab. WAT,"F4/80+CD11b+ macrophages; db/db mice, ABA 100 mg/kg diet, Ros^lo, or both, relative to the control diet",little effect
same,Ab. WAT % Body Weight,[4]; no rosiglitazone,4.7 ± 0.68^a % Body Weight
same,Sc. WAT % Body Weight,[4]; no rosiglitazone,2.8 ± 0.48 % Body Weight
same,Ab. WAT as percent body weight (in words),[4]; Ros^hi,significantly and independently reduced
same,inguinal SCAT weight (in words),[4]; Ros^hi,little affect
